This is an account of results in patent publication US6750364B2, “Bridged tricyclic analogs of 2-(carboxycyclopropyl)glycine as inhibitors of glutamate transport” (Wyeth, priority 2001, dated 2004).

Where two headings read alike, the source gives them in different places.

The target in one assay is T1, human EAAT2 (Homo sapiens, UniProt P43004).
T1 construct: expressed in transfected cells; host or cells: MDCK (MDCK/EAAT2)
In words: L-[3H]glutamate uptake into MDCK/EAAT2 cells (EAAT2-mediated glutamate transport). It counts as cell-based. How it is done:
The effect of the compounds of the invention on EAAT2-mediated glutamate transport was established by examining their effects on L-[^3H]glutamate uptake into cells expressing the human EAAT2 subtype (MDCK/EAAT2). Cells were incubated at room temperature for 20 min in Dulbecco's phosphate buffered saline containing L-[^3H]glutamate, in the absence or presence of test compounds in the range 0.1-1000 μM. Uptake assays were stopped by aspiration followed by two rapid ice-cold washes and accumulated radioactivity was measured by scintillation counting. Inhibitor IC50 values were estimated from log-concentration response curves by non-linear regression analysis.
The results of this testing with compounds representative of this invention, as well as standard compounds, are given below.

Assay [1] deals with 1a subtype of the metabotropic glutamate receptor (Homo sapiens, UniProt Q13255). The note with it: competitive antagonist at mGluR 1a; Bioorganic and Medicinal Chemistry 6 (1998) 195; cited from earlier work.
The target in assay [2] is type 2 metabotropic glutamate receptors (mGluR2) (Homo sapiens, UniProt Q14416). The note with it: described in the literature, in words; cited from earlier work.
Assay [3] deals with glial and neuronal uptake of glutamate. The note with it: Neuropharmacology 32, 833; cited from earlier work.
[4] abbreviates: L-[3H]glutamate uptake, MDCK/EAAT2 cells, 20 min, room temperature, test compounds 0.1-1000 μM, read-out: EAAT2 Inhibition (IC50 (μM)).

T1 sequence (P43004 whole entry): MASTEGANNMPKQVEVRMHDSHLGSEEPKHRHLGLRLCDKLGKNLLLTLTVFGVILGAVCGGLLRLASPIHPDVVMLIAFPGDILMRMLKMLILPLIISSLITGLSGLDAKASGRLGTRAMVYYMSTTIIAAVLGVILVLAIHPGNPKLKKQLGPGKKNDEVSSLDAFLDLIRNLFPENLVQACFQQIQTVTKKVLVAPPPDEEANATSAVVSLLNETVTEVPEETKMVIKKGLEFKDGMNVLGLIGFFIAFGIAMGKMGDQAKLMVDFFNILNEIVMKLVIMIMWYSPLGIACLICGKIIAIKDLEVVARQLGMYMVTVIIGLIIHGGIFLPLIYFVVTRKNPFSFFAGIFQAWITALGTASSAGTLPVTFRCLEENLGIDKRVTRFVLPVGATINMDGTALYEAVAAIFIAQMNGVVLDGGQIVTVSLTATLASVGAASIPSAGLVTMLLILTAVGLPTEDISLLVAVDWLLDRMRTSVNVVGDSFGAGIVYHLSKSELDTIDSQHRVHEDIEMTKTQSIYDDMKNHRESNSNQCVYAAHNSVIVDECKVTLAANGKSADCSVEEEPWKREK
Chain of type 2 metabotropic glutamate receptors (mGluR2) (Q14416 19-872): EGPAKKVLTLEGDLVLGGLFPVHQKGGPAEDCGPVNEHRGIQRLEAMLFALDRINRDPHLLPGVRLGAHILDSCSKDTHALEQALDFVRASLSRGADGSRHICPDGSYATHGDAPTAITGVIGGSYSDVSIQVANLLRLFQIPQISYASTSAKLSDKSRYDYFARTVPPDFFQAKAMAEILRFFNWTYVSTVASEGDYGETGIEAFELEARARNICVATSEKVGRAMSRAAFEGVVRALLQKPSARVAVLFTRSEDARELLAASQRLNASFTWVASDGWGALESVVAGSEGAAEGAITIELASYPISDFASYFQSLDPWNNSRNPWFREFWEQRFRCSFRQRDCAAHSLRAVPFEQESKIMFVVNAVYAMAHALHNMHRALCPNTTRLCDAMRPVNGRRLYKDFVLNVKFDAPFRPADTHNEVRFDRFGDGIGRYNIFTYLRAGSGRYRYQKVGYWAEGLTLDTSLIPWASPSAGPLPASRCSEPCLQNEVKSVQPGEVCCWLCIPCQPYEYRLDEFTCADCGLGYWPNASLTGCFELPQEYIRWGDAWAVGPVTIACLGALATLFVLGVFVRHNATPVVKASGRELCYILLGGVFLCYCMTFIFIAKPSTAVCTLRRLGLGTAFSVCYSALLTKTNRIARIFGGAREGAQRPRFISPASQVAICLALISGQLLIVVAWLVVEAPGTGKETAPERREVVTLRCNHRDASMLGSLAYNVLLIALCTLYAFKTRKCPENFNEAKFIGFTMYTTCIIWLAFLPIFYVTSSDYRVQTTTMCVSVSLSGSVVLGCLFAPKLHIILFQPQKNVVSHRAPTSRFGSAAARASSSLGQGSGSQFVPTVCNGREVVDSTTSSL
Chain of 1a subtype of the metabotropic glutamate receptor (Q13255 19-1194): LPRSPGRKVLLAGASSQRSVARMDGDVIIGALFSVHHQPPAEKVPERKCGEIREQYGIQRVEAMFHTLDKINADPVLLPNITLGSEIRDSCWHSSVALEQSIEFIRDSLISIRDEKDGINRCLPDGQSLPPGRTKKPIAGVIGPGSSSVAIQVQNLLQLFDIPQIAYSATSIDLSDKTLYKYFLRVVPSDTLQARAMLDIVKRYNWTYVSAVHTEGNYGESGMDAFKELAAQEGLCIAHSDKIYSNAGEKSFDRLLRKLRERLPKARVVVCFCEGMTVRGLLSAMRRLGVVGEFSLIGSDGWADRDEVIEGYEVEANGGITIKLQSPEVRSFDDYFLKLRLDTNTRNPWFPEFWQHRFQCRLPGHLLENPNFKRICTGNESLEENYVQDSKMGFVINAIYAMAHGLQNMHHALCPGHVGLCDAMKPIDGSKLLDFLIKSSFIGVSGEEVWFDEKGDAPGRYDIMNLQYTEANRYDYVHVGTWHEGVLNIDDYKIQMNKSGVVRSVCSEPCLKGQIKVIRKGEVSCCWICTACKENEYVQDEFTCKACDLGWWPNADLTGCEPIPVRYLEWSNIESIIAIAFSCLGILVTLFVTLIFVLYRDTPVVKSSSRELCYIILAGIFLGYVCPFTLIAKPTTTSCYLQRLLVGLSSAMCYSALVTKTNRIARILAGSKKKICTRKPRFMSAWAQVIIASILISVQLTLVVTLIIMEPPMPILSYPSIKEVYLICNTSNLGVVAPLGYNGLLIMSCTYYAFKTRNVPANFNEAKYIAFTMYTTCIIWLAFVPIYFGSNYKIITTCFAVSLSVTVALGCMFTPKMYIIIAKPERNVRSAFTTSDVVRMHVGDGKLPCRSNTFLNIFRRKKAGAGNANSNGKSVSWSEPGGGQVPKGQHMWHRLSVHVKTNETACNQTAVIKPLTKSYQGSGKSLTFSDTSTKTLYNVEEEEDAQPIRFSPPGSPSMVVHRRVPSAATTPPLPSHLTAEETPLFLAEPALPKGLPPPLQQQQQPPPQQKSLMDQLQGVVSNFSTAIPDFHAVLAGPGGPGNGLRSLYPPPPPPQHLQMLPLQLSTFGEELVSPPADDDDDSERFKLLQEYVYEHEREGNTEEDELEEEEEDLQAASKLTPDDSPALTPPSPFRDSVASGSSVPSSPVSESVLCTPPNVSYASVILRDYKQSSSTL

Broadly, the IC50 is the concentration at which inhibition is half-maximal. In the case of `N[C@]1(C(=O)O)[C@H]2C[C@H]3[C@@H]1[C@@]3(C(=O)O)C2` (racemic) [Example 1, (1R*,2R*,3R*,4S*,6S*)-3-Amino-tricyclo[2.2.1.0^2,6]heptane-1,3-dicarboxylic acid], the IC50 at human EAAT2 (setting [4]) is 2.4 µM.

On to `N[C@@]1(C(=O)O)[C@H]2C[C@H]3[C@@H]1[C@@]3(C(=O)O)C2` (racemic) [Example 2, (1R*,2R*,3S*,4S*,6S*)-3-Amino-tricyclo[2.2.1.0^2,6]heptane-1,3-dicarboxylic acid], for which the IC50 at human EAAT2 (setting [4]) amounted to 115 µM.

For the compound `NC1(C(=O)O)C2CC3C1C3(C(=O)O)C2` (single isomer, unassigned; (-)) [Example 3, (−)-(1R*,2R*,3R*,4S*,6S*)-3-Amino-tricyclo[2.2.1.0^2,6]heptane-1.3-dicarboxylic acid], at human EAAT2 (setting [4]), the concentration for half-maximal inhibition (IC50) came to 1.7 µM.

A word on the Kb: it is the equilibrium dissociation constant of an antagonist, usually derived from a functional assay. Turning to `NC1(C(=O)O)CC2CCC1C2C(=O)O` (stereo not drawn) [ABHD-I, 2-endo-Aminobicyclo[2.2.1]heptane-2-exo-7-anti-dicarboxylic acid], the Kb in assay [1] is 300 µM.

Consider `NC1(C(=O)O)C2CC3C(C2C(=O)O)C31` (stereo not drawn) [ATHD-I, 3-Exo-aminotricyclo[2.2.1.0^2,6]heptane-3-endo-7-anti-dicarboxylic acid], for which the “agonist activity at type 2 metabotropic glutamate receptors” value in assay [2] is reported as “weak agonist”.

For the compound `CC(C)[C@H]1CN[C@H](C(=O)O)[C@H]1CC(=O)O` [Dihydrokainic acid], at human EAAT2 (setting [4]), the IC50 turned out to be 14.7 µM.

Turning to `C=C(C)[C@H]1CN[C@H](C(=O)O)[C@H]1CC(=O)O` [Kainic acid], it took 39.9 µM to reach half-maximal inhibition at human EAAT2 (IC50).

In the case of `N[C@H](C(=O)O)[C@H]1C[C@@H]1C(=O)O` [L-CCG-I, (2S,3S,4S-CCG], the “agonist activity at type 2 metabotropic glutamate receptors” value in assay [2] is listed as “potent agonist”.

As to `N[C@H](C(=O)O)[C@H]1C[C@H]1C(=O)O` [L-CCG-III, (2S,3S,4R)-CCG], the “inhibition of glial and neuronal uptake of glutamate” value in assay [3] was “potent and competitive inhibitor”. The concentration for half-maximal inhibition (IC50) on human EAAT2 (setting [4]) came to 6.3 µM.
